This note sets out measurements from patent US9828379B2 (priority 2013, dated 2017).

Bounds are passed on as bounds.

The target in assay [1] is T1, ABHD6 (Mus musculus, UniProt Q8R2Y0).
T1 sequence (Q8R2Y0 1-336): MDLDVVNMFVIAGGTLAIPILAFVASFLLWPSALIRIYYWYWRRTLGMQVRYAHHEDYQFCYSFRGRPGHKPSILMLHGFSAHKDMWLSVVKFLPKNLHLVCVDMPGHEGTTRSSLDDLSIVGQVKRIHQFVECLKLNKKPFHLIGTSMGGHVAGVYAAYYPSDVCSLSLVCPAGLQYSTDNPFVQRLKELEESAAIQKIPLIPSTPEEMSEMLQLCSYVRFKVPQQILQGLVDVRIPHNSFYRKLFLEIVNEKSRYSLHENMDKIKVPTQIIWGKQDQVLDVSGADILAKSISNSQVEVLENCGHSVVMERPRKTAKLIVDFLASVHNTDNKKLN
The experiment in a line: In vitro competitive activity-based protein profiling (Table 2, % inhibition at 1 μM). The assay is classed as biochemical. The settings on record: read-out: % Inhibition at 1 μM ABHD6.

Assay [2] addresses T2, FAAH (Mus musculus, UniProt O08914).
T2 sequence (O08914 1-579): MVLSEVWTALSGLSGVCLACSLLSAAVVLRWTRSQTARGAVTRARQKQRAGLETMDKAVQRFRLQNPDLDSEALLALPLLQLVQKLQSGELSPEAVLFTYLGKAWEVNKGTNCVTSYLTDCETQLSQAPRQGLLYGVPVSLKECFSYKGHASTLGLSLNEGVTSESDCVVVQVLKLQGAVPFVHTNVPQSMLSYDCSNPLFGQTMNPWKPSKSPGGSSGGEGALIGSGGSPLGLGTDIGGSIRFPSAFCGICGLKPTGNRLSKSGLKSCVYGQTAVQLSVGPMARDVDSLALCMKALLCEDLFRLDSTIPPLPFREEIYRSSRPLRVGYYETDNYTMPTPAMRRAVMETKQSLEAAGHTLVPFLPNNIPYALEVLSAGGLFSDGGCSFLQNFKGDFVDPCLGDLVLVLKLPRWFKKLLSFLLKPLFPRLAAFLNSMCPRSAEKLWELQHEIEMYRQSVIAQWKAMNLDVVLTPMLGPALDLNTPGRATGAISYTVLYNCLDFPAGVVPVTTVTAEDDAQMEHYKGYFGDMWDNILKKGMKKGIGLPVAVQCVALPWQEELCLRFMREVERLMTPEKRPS
The description is as above. Format: biochemical. The settings on record: read-out: % Inhibition at 1 μM FAAH.

The target in assay [3] is T3, MAGL (Mus musculus, UniProt O35678).
T3 sequence (O35678 1-303): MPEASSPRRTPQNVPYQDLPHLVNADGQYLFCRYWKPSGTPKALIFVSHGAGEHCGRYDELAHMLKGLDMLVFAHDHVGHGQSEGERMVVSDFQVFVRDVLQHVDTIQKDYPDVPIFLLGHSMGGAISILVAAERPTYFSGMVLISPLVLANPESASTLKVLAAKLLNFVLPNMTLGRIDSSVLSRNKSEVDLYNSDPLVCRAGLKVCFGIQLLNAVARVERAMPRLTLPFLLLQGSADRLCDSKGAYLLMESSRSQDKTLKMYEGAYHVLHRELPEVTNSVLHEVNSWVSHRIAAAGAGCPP
In words: biochemical. The settings on record: mouse; in vitro competitive ABPP; read-out: Mouse (IC50 value, nM) MAGL.

Assay [4] has as its target T3, MAGL. The experiment in a line: In vitro competitive activity-based protein profiling (Table 2, % inhibition at 1 μM). The settings on record: read-out: % Inhibition at 1 μM MAGL. Format: biochemical. The protocol:
After 30 min, FP—Rh (1.0 μL, 50 μM in DMSO) was added and the mixture was incubated for another 30 min at 37° C. Reactions were quenched with SDS loading buffer (50 μL-4×) and run on SDS-PAGE.
Cell lysates were diluted with mock proteomes for use in competitive ABPP experiments.

In assay [5] the target is T2, FAAH. In words: biochemical. The settings on record: in vitro competitive ABPP.
For assay [6], the target named is T4, Mouse brain MAGL (Mus musculus, UniProt O35678).
T4 construct: from tissue; host or cells: brain of wild-type C57Bl/6J mice dosed by oral gavage
T4 sequence (O35678 1-303): T3 sequence (O35678 1-303)
The experiment in a line: Mouse brain proteomes from inhibitor treated mice (oral gavage, ABPP analysis). Format: in vivo. The settings on record: p.o., sacrificed 4 h following administration. The protocol:
After 30 min, FP—Rh (1.0 μL, 50 μM in DMSO) was added and the mixture was incubated for another 30 min at 37° C. Reactions were quenched with SDS loading buffer (50 μL-4×) and run on SDS-PAGE. Following gel imaging, serine hydrolase activity was determined by measuring fluorescent intensity of gel bands corresponding to MAGL, ABHD6 and FAAH using ImageJ 1.43 u software.
Inhibitors were administered to wild-type C57Bl/6J by oral gavage in a vehicle of polyethylene glycol. Each animal was sacrificed 4 h following administration and brain proteomes were prepared and analyzed according to previously established methods (See Niphakis, M. J., et al. (2011) ACS Chem. Neurosci. and Long, J. Z., et al. Nat. Chem. Biol. 5:37-44).

Assay [7] concerns the target T1, ABHD6. In words: biochemical. The settings on record: in vitro competitive ABPP.

For `Cc1cccc(CN2CC3CN(C(=O)OC(C(F)(F)F)C(F)(F)F)CC3C2)c1N1CCC2(CCOC2)C1` (centres unmarked) [Example 40, 1,1,1,3,3,3-Hexafluoropropan-2-yl 5-[(3-methyl-2-[2-oxa-7-azaspiro[4.4]nonan-7-yl]phenyl)methyl]-octahydropyrrolo[3,4-c]pyrrole-2-carboxylate], the results for the inhibition at 1 µM in assay [1], in assay [2] and in assay [4] were under 25%, under 25% and over 75%, respectively. Also, the IC50 in assay [3] was under 100 nM; in assay [5], 1000 to 10000 nM; in assay [7], 1000 to 10000 nM. The inhibition at 5 mg/kg in assay [6] fell in the range of 25 to 75%.

Turning to `Cn1cc(CN2CC3CN(C(=O)OC(C(F)(F)F)C(F)(F)F)CC3C2)c(-c2ccccc2Cl)n1` (centres unmarked) [Example 51, 1,1,1,3,3,3-Hexafluoropropan-2-yl 5-[[3-(2-chlorophenyl)-1-methyl-1H-pyrazol-4-yl]methyl]-octahydropyrrolo[3,4-c]pyrrole-2-carboxylate], the inhibition at 1 µM in assay [1] was 25 to 75%; in assay [2], under 25%; in assay [4], over 75%. For the same compound, the IC50 is under 100 nM in assay [3], over 10000 nM in assay [5] and 1000 to 10000 nM in assay [7]. The compound also registered an inhibition at 5 mg/kg in assay [6] of at most 25%.

In the case of `O=C(OC(C(F)(F)F)C(F)(F)F)N1CC2CN(Cc3ccc(Cl)cc3N3CC4CCC(C3)O4)CC2C1` (centres unmarked) [Example 3, 1,1,1,3,3,3-Hexafluoropropan-2-yl 5-(2-(8-oxa-3-azabicyclo[3.2.1]octan-3-yl)-4-chlorobenzyl)hexahydropyrrolo[3,4-c]pyrrole-2(1H)-carboxylate], the values for the inhibition at 1 µM in assay [1], in assay [2] and in assay [4] were 25 to 75%, 25 to 75% and over 75%, respectively. In addition, the 50% inhibitory concentration (IC50) is under 100 nM in assay [3], 1000 to 10000 nM in assay [5] and 1000 to 10000 nM in assay [7]. This compound showed an inhibition at 5 mg/kg in assay [6] of at most 25%.

Consider `O=C(OC(C(F)(F)F)C(F)(F)F)N1CC2CN(Cc3cccc(N4CCC5(CCOC5)C4)c3C(F)(F)F)CC2C1` (centres unmarked) [Example 128, 1,1,1,3,3,3-hexafluoropropan-2-yl 5-[(3-[2-oxa-7-azaspiro[4.4]nonan-7-yl]-2-(trifluoromethyl)phenyl)methyl]-octahydropyrrolo[3,4-c]pyrrole-2-carboxylate], for which the inhibition at 1 µM in assay [1] was under 25%; in assay [2], under 25%; in assay [4] it was over 75%. Also, the results for the IC50 in assay [3], in assay [5] and in assay [7] were under 100 nM, 1000 to 10000 nM and 1000 to 10000 nM, respectively. The same compound had an inhibition at 5 mg/kg in assay [6] of at most 25%.

On to `O=C(OC(C(F)(F)F)C(F)(F)F)N1CC2CN(Cc3cccc(Cl)c3N3CCC(F)CC3)CC2C1` (centres unmarked) [Example 159, 1,1,1,3,3,3-hexafluoropropan-2-yl 5-[[3-chloro-2-(4-fluoropiperidin-1-yl)phenyl]methyl]-octahydropyrrolo[3,4-c]pyrrole-2-carboxylate], for which the inhibition at 1 µM is under 25% in assay [1], under 25% in assay [2] and over 75% in assay [4]. Besides, the IC50 in assay [3] was under 100 nM; in assay [5] it was over 10000 nM; in assay [7], 1000 to 10000 nM. Also, the inhibition at 5 mg/kg in assay [6] was at most 25%.

With `CC(=O)N1CCC2(CCN(c3ccccc3CN3CC4CN(C(=O)OC(C(F)(F)F)C(F)(F)F)CC4C3)C2)C1` (centres unmarked) [Example 135, 1,1,1,3,3,3-hexafluoropropan-2-yl 5-[(2-[7-acetyl-2,7-diazaspiro[4.4]nonan-2-yl]phenyl)methyl]-octahydropyrrolo[3,4-c]pyrrole-2-carboxylate], the inhibition at 1 µM in assay [1] was under 25%; in assay [2] it was under 25%; in assay [4], over 75%. For the same compound, the figures for the IC50 in assay [3], in assay [5] and in assay [7] were under 100 nM, 1000 to 10000 nM and 1000 to 10000 nM, respectively. In assay [6], the inhibition at 5 mg/kg was at most 25%.

For `CS(=O)(=O)N1CCC2(CCN(c3ccccc3CN3CC4CN(C(=O)OC(C(F)(F)F)C(F)(F)F)CC4C3)C2)C1` (centres unmarked) [Example 134, 1,1,1,3,3,3-hexafluoropropan-2-yl 5-[(2-[7-methanesulfonyl-2,7-diazaspiro[4.4]nonan-2-yl]phenyl)methyl]-octahydropyrrolo[3,4-c]pyrrole-2-carboxylate], the inhibition at 1 µM in assay [1] was under 25%; in assay [2], 25 to 75%; in assay [4] it was over 75%. In addition, the IC50 is under 100 nM in assay [3], 1000 to 10000 nM in assay [5] and 1000 to 10000 nM in assay [7]. Besides, in assay [6], the inhibition at 5 mg/kg was at most 25%.

In the case of `CS(=O)(=O)N1CC2(CCN(c3ccccc3CN3CC4CN(C(=O)OC(C(F)(F)F)C(F)(F)F)CC4C3)C2)C1` (centres unmarked) [Example 136, 1,1,1,3,3,3-hexafluoropropan-2-yl 5-[(2-[2-methanesulfonyl-2,6-diazaspiro[3.4]octan-6-yl]phenyl)methyl]-octahydropyrrolo[3,4-c]pyrrole-2-carboxylate], the inhibition at 1 µM in assay [1] was under 25%; in assay [2], under 25%; in assay [4], over 75%. For the same compound, the IC50 in assay [3] was under 100 nM; in assay [5], 1000 to 10000 nM; in assay [7], 1000 to 10000 nM. Moreover, the inhibition at 5 mg/kg in assay [6] was at most 25%.

As to `CC(=O)N1CC2(CCN(c3ccccc3CN3CC4CN(C(=O)OC(C(F)(F)F)C(F)(F)F)CC4C3)C2)C1` (centres unmarked) [Example 137, 1,1,1,3,3,3-hexafluoropropan-2-yl 5-[(2-[2-acetyl-2,6-diazaspiro[3.4]octan-6-yl]phenyl)methyl]-octahydropyrrolo[3,4-c]pyrrole-2-carboxylate], the inhibition at 1 µM in assay [1] was under 25%; in assay [2], under 25%; in assay [4], over 75%. Further, the results for the IC50 in assay [3], in assay [5] and in assay [7] were under 100 nM, 1000 to 10000 nM and 1000 to 10000 nM, respectively. For the same compound, the inhibition at 5 mg/kg in assay [6] was at most 25%.

With `CCn1ncc(CN2CC3CN(C(=O)OC(C(F)(F)F)C(F)(F)F)CC3C2)c1C(=O)NCCc1cccc(Cl)c1` (centres unmarked) [Example 180, 1,1,1,3,3,3-hexafluoropropan-2-yl 5-((5-((3-chlorophenethyl)carbamoyl)-1-ethyl-1H-pyrazol-4-yl)methyl)hexahydropyrrolo[3,4-c]pyrrole-2(1H)-carboxylate], the figures for the inhibition at 1 µM in assay [1], in assay [2] and in assay [4] were under 25%, under 25% and over 75%, respectively. For the same compound, the values for the IC50 in assay [3], in assay [5] and in assay [7] were under 100 nM, over 10000 nM and 1000 to 10000 nM, respectively. In addition, the inhibition at 5 mg/kg in assay [6] was at most 25%.

On to `CC(C)c1cc(CN2CC3CN(C(=O)OC(C(F)(F)F)C(F)(F)F)CC3C2)n(C2CCOCC2)n1` (centres unmarked) [Example 62, 1,1,1,3,3,3-Hexafluoropropan-2-yl 5-[[1-(oxan-4-yl)-3-(propan-2-yl)-1H-pyrazol-5-yl]methyl]-octahydropyrrolo[3,4-c]pyrrole-2-carboxylate], for which the inhibition at 1 µM was 25 to 75% in assay [1], under 25% in assay [2] and over 75% in assay [4]. Further, the IC50 in assay [3] is under 100 nM; in assay [5] it was 1000 to 10000 nM; in assay [7] it was 1000 to 10000 nM. This compound also gave an inhibition at 5 mg/kg in assay [6] of at least 75%.
